{"source": "paper PMC6302903", "about": "“Protein and Chemical Determinants of BL-1249 Action and Selectivity for K2P Channels” (ACS Chemical Neuroscience, 2018)", "biological_target": "T1, K2P4.1(TRAAK) L147F (Mus musculus, UniProt O88454, L147F)", "T1 construct": "expressed in transfected cells; host or cells: Xenopus laevis oocytes, mRNA injected", "T1 sequence (O88454 whole entry L147F)": "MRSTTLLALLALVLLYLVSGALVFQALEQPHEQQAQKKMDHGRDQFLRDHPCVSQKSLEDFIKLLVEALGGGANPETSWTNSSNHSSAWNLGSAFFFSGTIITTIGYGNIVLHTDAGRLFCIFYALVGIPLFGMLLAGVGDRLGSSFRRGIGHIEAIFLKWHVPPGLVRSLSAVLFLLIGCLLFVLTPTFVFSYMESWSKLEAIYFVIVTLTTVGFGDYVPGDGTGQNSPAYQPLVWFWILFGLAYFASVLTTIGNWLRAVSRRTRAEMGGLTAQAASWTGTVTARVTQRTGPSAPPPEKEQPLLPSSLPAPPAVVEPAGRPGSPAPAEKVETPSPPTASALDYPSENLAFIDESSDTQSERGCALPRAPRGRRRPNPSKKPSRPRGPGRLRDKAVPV", "experiment": "TEVC of K2P4.1(TRAAK) mutant L147F", "assay_type": "cell-based", "settings": "Xenopus oocytes", "description": "To identify K2P2.1(TREK-1) M2 residues that might participate in the BL-1249 response, we mapped the residues that differ between K2P2.1(TREK-1) and K2P4.1(TRAAK) in the context of the K2P2.1(TREK-1) structure[6] (Figure 5B,C). Two K2P2.1(TREK-1) M2 residues stood out as candidates that could explain the reduction in BL-1249 response when the entire M2 helix was replaced with M2 from K2P4.1(TRAAK). One is at the M2/M4 interface and occurs between Phe172 and Arg297 via a π–cation interaction that would be lost when Phe172 is replaced with the equivalent K2P4.1(TRAAK) residue Met134 (Figure 5C, right inset). […] To assess the importance of these interactions in the context of BL-1249 response, we made the K2P2.1(TREK-1) mutants F172M and F185L and measured their responses to BL-1249 (Figure 5D). […]\nXenopus laevis oocytes were harvested in accordance with UCSF IACUC protocol AN129690 and digested in calcium-free ND-96 (96 mM NaCl, 2 mM KCl, 3.8 mM MgCl2) immediately following harvest, as previously described.[6],[10] […] Defolliculated stage V–VI oocytes were injected with 0.2–6.0 ng of mRNA in 50 nL, and currents were recorded 24–48 h after injection. mRNA was synthesized from plasmid DNA using mMessage mMachine Kit (T7 promoter, Ambion, Life Technologies) and purified using RNEasy Kit (Qiagen). […]"}
{"compound": "c1ccc(-c2nnn[nH]2)c(Nc2cccc3c2CCCC3)c1", "note": "[BL-1249, (5,6,7,8-tetrahydro-naphthalen-1-yl)-[2-(1H-tetrazol-5-yl)-phenyl]-amine]", "values": [{"measurement": "EC50", "value": "27 ± 4", "unit": "µM"}]}
